# Results from US20220144848A1, “SUBSTITUTED OXOPYRIDINE DERIVATIVES” (Bayer Aktiengesellschaft, priority 2018, published 2022).
# Legend:
# human factor XIa = target: T1, human factor XIa (Homo sapiens, UniProt P03951); assay: Measurement of FXIa inhibition (fluorogenic peptide substrate Boc-Glu(OBzl)-Ala-Arg-AMC); type: biochemical; conditions: factor XIa from Kordia, 15 min preincubation, 30 min at 22° C., fluorescence; some as mean values from multiple determinations
# T1 construct: purchased Kordia
# human plasma kallikrein = target: T2, human plasma kallikrein (Homo sapiens, UniProt P03952); assay: Determination of the plasma kallikrein activity (fluorogenic peptide substrate H-Pro-Phe-Arg-AMC); type: biochemical; conditions: plasma kallikrein from Kordia, 15 min preincubation, 30 min at 22° C., fluorescence; some as mean values from multiple determinations
# T2 construct: purchased Kordia
# T2 sequence (P03952 391-638 limits assumed): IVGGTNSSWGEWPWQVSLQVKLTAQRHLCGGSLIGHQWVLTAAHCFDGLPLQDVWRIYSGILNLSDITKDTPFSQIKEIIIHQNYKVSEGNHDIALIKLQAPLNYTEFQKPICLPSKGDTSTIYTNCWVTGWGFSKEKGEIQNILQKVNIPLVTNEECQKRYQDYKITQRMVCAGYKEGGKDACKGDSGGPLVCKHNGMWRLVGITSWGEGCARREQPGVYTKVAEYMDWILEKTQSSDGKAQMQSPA
# T2 sequence (P03952 20-390 partner limits assumed): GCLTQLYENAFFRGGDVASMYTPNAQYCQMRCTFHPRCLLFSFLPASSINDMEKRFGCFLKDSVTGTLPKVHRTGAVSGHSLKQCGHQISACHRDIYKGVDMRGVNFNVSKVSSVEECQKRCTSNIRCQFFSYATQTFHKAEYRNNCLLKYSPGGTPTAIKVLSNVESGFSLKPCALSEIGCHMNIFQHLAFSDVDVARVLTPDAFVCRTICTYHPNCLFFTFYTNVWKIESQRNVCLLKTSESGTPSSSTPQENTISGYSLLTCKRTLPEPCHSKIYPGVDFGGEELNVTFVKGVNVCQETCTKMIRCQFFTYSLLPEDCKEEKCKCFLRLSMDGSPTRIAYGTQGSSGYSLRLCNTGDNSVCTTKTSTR
# T1 sequence (P03951 388-625 limits assumed): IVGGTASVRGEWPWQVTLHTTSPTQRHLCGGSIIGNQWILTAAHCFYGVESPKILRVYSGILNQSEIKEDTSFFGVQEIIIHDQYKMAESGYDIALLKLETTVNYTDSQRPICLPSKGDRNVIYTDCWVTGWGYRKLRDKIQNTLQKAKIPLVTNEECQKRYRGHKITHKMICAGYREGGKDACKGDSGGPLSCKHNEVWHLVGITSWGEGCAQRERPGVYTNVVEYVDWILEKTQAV
# T1 sequence (P03951 19-387 partner limits assumed): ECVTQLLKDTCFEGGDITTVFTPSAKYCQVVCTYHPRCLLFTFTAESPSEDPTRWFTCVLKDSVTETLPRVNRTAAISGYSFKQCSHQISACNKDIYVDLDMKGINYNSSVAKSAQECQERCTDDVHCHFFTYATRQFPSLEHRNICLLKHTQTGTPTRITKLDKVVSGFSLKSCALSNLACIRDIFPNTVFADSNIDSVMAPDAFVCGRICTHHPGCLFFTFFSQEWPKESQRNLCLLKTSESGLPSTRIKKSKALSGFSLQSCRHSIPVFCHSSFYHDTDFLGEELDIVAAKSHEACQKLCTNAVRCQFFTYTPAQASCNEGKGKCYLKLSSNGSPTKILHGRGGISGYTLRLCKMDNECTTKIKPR
structure (smiles),measurement,setting,value
"CO[C@@H](C)C[C@@H](C(=O)Nc1ccc(C(N)=O)cc1)n1cc2c(cc1=O)-c1c(ccc(Cl)c1Cl)C[C@@H](C(F)(F)F)OC2 (single isomer, unassigned) [Example 80]",IC50,human factor XIa,0.0095 µM
same,IC50,human plasma kallikrein,0.28 µM
